For one assay, the system named is TUS/R line 3 (MOLM-14). The assay is described as follows: Growth inhibition of TUS-resistant subline. It counts as cell-based, human. As to conditions: Homo sapiens; for GI50: MOLM-14, read-out: GI50 (nM) TUS/R line 3, mean ± SEM (Supplementary Table 6).
Assay [1] has as its system Ba/F3 cells FLT3 ITD/D835Y. The assay is described as follows: Growth inhibition of Ba/F3 cells. It counts as cell-based, murine. As to conditions: Mus musculus, BaF3; Ba/F3 FLT3 ITD/D835Y; mean ± SD; read-out: GI50. As to the method:
(§1) MV-4-11 cells expressing NRAS^G12D were prepared by transduction with a lentiviral vector encoding the NRAS^G12D mutation. Assays using a panel of parental Ba/F3 into which an additional copy of either WT or a mutant form of FLT3 was introduced were performed at Kyinno Biotechnology Co., Ltd. All cell lines were short tandem repeat authenticated at ATCC or at DSMZ when originally obtained, and no further authentication was done after receipt of the cells in the laboratory.
(§2) Assays using Ba/F3 cells expressing WT and mutant forms of FLT3 were performed by Kyinno Biotechnology. The cells were cultured in the medium recommended by the source for each cell line. Growth inhibition assays were performed using either Cell Titer 96 Aqueous One Solution Cell Proliferation assay (Promega, # G3581) or CCK8 (Dojindo, # CK-04). […] IC50 values were determined from growth inhibition curves fitted using GraphPad Prism and a nonlinear regression model with sigmoidal dose response. Unless otherwise indicated, data are presented as mean ± SEM.

The next assay concerns Ba/F3 cells FLT3 WT. The assay is described as follows: Growth inhibition of Ba/F3 cells. It counts as cell-based, murine. As to conditions: Mus musculus, BaF3; Ba/F3 FLT3 WT; mean ± SD; read-out: GI50. How it is done:
as §1, §2

A further assay has as its system Ba/F3 cells FLT3 D835Y. In words: Growth inhibition of Ba/F3 cells. It counts as cell-based, murine. As to conditions: Mus musculus, BaF3; Ba/F3 FLT3 D835Y; mean ± SD; read-out: GI50. As to the method:
as §1, §2

In assay [2] the test system is Ba/F3 cells FLT3 ITD/F691L. In words: Growth inhibition of Ba/F3 cells. The class given is cell-based, murine. As to conditions: Mus musculus, BaF3; Ba/F3 FLT3 ITD/F691L; mean ± SD; read-out: GI50. As to the method: as §1, §2
The test system of the next assay is Ba/F3 cells FLT3 ITD. In words: Growth inhibition of Ba/F3 cells. The class given is cell-based, murine. As to conditions: Mus musculus, BaF3; Ba/F3 FLT3 ITD; mean ± SD; read-out: GI50. As to the method: as §1, §2
The test system of the next assay is MV-4-11 cells. In words: Growth inhibition of AML cell line. The note with it: Homo sapiens, MV4-11. The class given is cell-based, human. How it is done: as §1, §2
In another assay the test system is MOLM-14 cells (parental). The assay is described as follows: Growth inhibition of AML cell line. It counts as cell-based, human. The note with it: Homo sapiens, MOLM-14. As to the method: as §1, §2
In assay [3] the test system is MV-4-11 NRAS G12D Clone 1. The assay is described as follows: Growth inhibition of NRAS G12D clone. It counts as cell-based, human. The note with it: for GI50: Homo sapiens, MV4-11, MV-4-11 NRAS G12D, mean ± SEM. How it is done:
as §1, §2

In assay [4] the test system is MV-4-11 NRAS G12D Clone 4. The assay is described as follows: Growth inhibition of NRAS G12D clone. The class given is cell-based, human. As to conditions: for GI50: Homo sapiens. As to the method: as §1, §2
The subject of assay [5] is MV-4-11 NRAS G12D Clone 15. In words: Growth inhibition of NRAS G12D clone. It counts as cell-based, human. As to conditions: for GI50: Homo sapiens, MV4-11, MV-4-11 NRAS G12D, mean ± SEM. As to the method: as §1, §2
The test system of a further assay is MOLM-13 cells. In words: Growth inhibition of AML cell line. It counts as cell-based. As to conditions: Homo sapiens, mean ± SD. As to the method:
as §1, §2

Another assay has as its target FLT3 D835Y (Homo sapiens, UniProt P36888, D835Y). In words: Biochemical enzyme activity screening assay. As to conditions: kinase FLT3 D835Y; mean ± SD.
The next assay deals with TUS/R line 4 (MOLM-14). The assay is described as follows: Growth inhibition of TUS-resistant subline. It counts as cell-based, human. As to conditions: Homo sapiens; for GI50: MOLM-14, read-out: GI50 (nM) TUS/R line 4, mean ± SEM (Supplementary Table 6).
Assay [6] has as its system p-JAK1, p-JAK2, p-STAT3, p-STAT5 in MOLM-14 cells cocultured with HS-5 cells. The assay is described as follows: HS-5 stromal coculture Western blot. It counts as cell-based, human. The note with it: concentrations <1 μmol/L; MOLM-14 cocultured with HS-5. As to the method: Cells were treated as described in respective Results sections and then lysed with RIPA buffer. Western blot analyses were performed with antibodies capable of detecting both total and phosphorylated forms of each kinase purchased from commercial sources. Information on the antibodies used is provided in the Supplementary Materials section.
HS-5 cells were obtained from ATCC. The HS-5 stromal cells (5 × 10^5 cells/well) were seeded into six-well plates, and 24 hours later, MOLM-14 cells (1 × 10^6 cells/well) were seeded into the same plate and then cultured for 48 hours. Cultures were then exposed to test drugs for 2 hours, harvested, and lysates were prepared for Western blotting. For stimulation studies, MOLM-14 or KG-1a cells were seeded at 5.0 to 6.0 × 10^6 cells/well into six-well plates in 2 mL medium. Cells were stimulated with 500 μg/mL fibrinogen (Sigma-Aldrich, Catalog # F3879) for 1 hour at 37°C. Alternatively, they were treated with 10 μg/mL IgG (Invitrogen, Catalog # 31154) for 10 minutes on ice followed by IgG cross-linking with 1 μg/mL anti–human IgG antibody for 10 minutes on ice. After these incubations, the media were removed and the cells were washed with cold PBS, lysed, and analyzed by Western blotting.
A general note: A western blot detects proteins with antibodies after separation by electrophoresis.

The test system of another assay is TUS/R line 2 (MOLM-14). The assay is described as follows: Growth inhibition of TUS-resistant subline. The class given is cell-based. The note with it: Homo sapiens, MOLM-14, read-out: IC50 (nmol/L), Mean ± SEM, TUS/R line 2.
For a further assay, the system named is TUS/R line 1 (MOLM-14). The assay is described as follows: Growth inhibition of TUS-resistant subline. The class given is cell-based. As to conditions: Homo sapiens, MOLM-14, read-out: IC50 (nmol/L), Mean ± SEM, TUS/R line 1.
Setting [7] is: MV-4-11, mean ± SD (Supplementary Table 4), read-out: GI50.
Setting [8] is: mean ± SEM (Supplementary Table 7), read-out: GI50 (nM) Parental (MV-4-11).
The mark [9] stands for this setting: mean ± SEM (Supplementary Table 6), read-out: GI50 (nM) Parental MOLM-14 (converted).
Where [10] appears, read: mean ± SD (Supplementary Table 4), read-out: GI50.
[11] abbreviates: MV4-11, MV-4-11 NRAS G12D, high expression, mean ± SEM, read-out: GI50 (nM) Clone 4.
Where [12] appears, read: 13 to […]-fold increase in NRAS G12D expression.

We go through 4 compounds from article PMC11725774 (Cancer Research Communications, 2025).

Like-named read-outs stand apart in the source and are kept apart here.

With `CCc1nc(C(N)=O)c(Nc2ccc(N3CCC(N4CCN(C)CC4)CC3)c(OC)c2)nc1NC1CCOCC1` [Gilteritinib, gilteritinib], the GI50 in the assay with TUS/R line 3 (MOLM-14) is 118 nM; in [1], 4.4 ± 0.6 nM; with Ba/F3 cells FLT3 WT, 7 ± 1.5 nM; with Ba/F3 cells FLT3 D835Y it was 2.3 ± 0.7 nM; in assay [2], 33 ± 6.2 nM; in the assay on Ba/F3 cells FLT3 ITD, 1.2 ± 0.2 nM. Besides, the GI50 in the assay with MV-4-11 cells (setting [7]) is 2 ± 0.2 nM; in the assay with MV-4-11 cells (setting [8]), 2.4 ± 0.7 nM; with MOLM-14 cells (parental) (setting [9]), 8.6 nM; in the assay on MOLM-14 cells (parental) (setting [10]), 6.1 ± 2.8 nM; in [3], 3.3 ± 0.7 nM; in assay [4] (setting [11]) it was 51 ± 12.2 nM. In addition, the GI50 in assay [5] is 5.6 ± 1.1 nM; in the assay on MOLM-13 cells it was 8.4 ± 2.9 nM; at FLT3 D835Y, 0.5 ± 0.1 nM; with TUS/R line 4 (MOLM-14), 128 nM. Besides, the “inhibition of p-JAK1, p-JAK2, p-STAT3, or p-STAT5” value in assay [6] was “Neither TUS nor gilteritinib inhibited”.

Regarding `CC(C)(C)c1cc(NC(=O)Nc2ccc(-c3cn4c(n3)sc3cc(OCCN5CCOCC5)ccc34)cc2)no1` [Quizartinib, quizartinib], the GI50 was 0.2 ± 0.1 nM with TUS/R line 3 (MOLM-14); 0.2 ± 0.1 nM with MV-4-11 cells (setting [7]); 0.5 ± 0.1 nM with MV-4-11 cells (setting [8]); 0.5 ± 0.02 nM in the assay on MOLM-14 cells (parental) (setting [9]); 0.6 ± 0.2 nM with MOLM-14 cells (parental) (setting [10]); 1.1 ± 0.2 nM in assay [3]. Further, the GI50 in assay [4] (MV4-11, read-out: GI50 (nM) Clone 4) turned out to be 1.9 ± 0.5 nM; in assay [5], 1.3 ± 0.4 nM; in the assay with MOLM-13 cells, 0.9 ± 0.5 nM; in the assay on TUS/R line 4 (MOLM-14), 0.5 ± 0.1 nM.

As to `CC1(C)CCC(CN2CCN(c3ccc(C(=O)NS(=O)(=O)c4ccc(NCC5CCOCC5)c([N+](=O)[O-])c4)c(Oc4cnc5[nH]ccc5c4)c3)CC2)=C(c2ccc(Cl)cc2)C1` [Venetoclax, venetoclax], the IC50 with TUS/R line 2 (MOLM-14) was 1.5 ± 0.05 nmol/L; in the assay with TUS/R line 3 (MOLM-14) (MOLM-14, read-out: IC50 (nmol/L), Mean ± SEM, TUS/R line 3) it was 1.1 ± 0.2 nmol/L; with MOLM-14 cells (parental) (growth inhibition, three independent experiments, read-out: IC50 (nmol/L), Mean ± SEM, MOLM-14 parental), 3020 ± 464 nmol/L; in the assay with TUS/R line 4 (MOLM-14) (MOLM-14, read-out: IC50 (nmol/L), Mean ± SEM, TUS/R line 4), 5 ± 0.8 nmol/L; with TUS/R line 1 (MOLM-14) it was 1.3 ± 0.1 nmol/L. For the same compound, the GI50 was determined as 10.5 ± 1.7 nM in the assay on MV-4-11 cells (setting [8]), 5.5 ± 1.4 nM in assay [3], 2260 ± 156 nM in [4] (setting [11]) and 4.9 ± 1.3 nM in assay [5]. In addition, the “change in sensitivity, clone 1” value in [3] (setting [12]) was “did not alter sensitivity”. Further, the “fold resistant / loss of sensitivity, clone 4 versus parental MV-4-11” value in assay [4] (high NRAS G12D expression) came to 214 fold. Moreover, in assay [5] (setting [12]), the “change in sensitivity, clone 15” value is given as “did not alter sensitivity”.

As for `CO[C@@H]1[C@H](N(C)C(=O)c2ccccc2)C[C@H]2O[C@]1(C)n1c3ccccc3c3c4c(c5c6ccccc6n2c5c31)C(=O)NC4` [Midostaurin, midostaurin], the GI50 in assay [1] is 21 ± 1.1 nM; in the assay on Ba/F3 cells FLT3 D835Y, 9 ± 2.7 nM; in assay [2], 16 ± 3.5 nM; with Ba/F3 cells FLT3 ITD it was 5.1 ± 0.1 nM; with MV-4-11 cells (setting [7]) it was 6 ± 1.4 nM; in the assay with MOLM-14 cells (parental) (setting [10]), 12 ± 7.1 nM. The GI50 with MOLM-13 cells was determined as 19 ± 14 nM.
